Measurements published in US20170342451A1, “BIOSYNTHESIS OF PACLITAXEL INTERMEDIATE” (Board of Trustees of Michigan State University, priority 2012, published 2017).

What was measured:
TycA = target: T1, TycA (Brevibacillus parabrevis, UniProt P09095); assay: N-acetylcysteamine ligase reaction kinetics, TycA; format: biochemical, Brevibacillus brevis; settings: NAC with (S)-α-Phe as cosubstrate; for kcat^NAC: TycA with NAC at apparent saturation
T1 construct: this wild-type tycA cDNA encoding the A-, T-, and E-domains was subcloned into a pSU18 vector; made in house; host or cells: Escherichia coli BL21(DE3)
T1 sequence (P09095 with tags, fused parts or gaps): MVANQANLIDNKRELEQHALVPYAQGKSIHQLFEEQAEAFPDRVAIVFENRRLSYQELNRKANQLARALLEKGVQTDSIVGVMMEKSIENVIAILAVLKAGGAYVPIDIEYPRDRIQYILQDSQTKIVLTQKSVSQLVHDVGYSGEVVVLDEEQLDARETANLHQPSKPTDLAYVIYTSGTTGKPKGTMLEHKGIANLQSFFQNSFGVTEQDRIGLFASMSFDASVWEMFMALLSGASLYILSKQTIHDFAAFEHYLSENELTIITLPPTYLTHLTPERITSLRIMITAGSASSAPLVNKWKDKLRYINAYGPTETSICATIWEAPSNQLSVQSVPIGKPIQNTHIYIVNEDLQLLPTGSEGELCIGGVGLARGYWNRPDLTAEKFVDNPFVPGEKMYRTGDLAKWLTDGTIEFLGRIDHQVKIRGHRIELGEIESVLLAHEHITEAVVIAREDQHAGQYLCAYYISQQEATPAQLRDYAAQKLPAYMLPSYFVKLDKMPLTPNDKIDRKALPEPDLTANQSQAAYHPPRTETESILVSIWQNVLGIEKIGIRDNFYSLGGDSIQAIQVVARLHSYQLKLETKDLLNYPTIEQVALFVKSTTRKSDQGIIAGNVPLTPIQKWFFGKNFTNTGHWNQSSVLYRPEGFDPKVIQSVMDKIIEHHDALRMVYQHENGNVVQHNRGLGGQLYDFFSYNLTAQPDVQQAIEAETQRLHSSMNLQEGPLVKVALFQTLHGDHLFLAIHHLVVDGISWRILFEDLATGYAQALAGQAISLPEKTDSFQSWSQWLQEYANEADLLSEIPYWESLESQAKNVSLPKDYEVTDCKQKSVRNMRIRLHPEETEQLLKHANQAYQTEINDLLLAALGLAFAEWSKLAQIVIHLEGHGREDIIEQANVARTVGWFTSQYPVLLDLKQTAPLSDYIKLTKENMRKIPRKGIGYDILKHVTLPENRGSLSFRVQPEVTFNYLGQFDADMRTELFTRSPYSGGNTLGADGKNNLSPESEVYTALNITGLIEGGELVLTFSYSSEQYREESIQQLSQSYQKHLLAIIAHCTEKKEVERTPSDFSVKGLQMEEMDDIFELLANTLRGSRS
Procedure: Substrates (S)-α-phenylalanine, (R)-β-phenylalanine, and (2R,3S)-phenylisoserine (each at 1 mM) were separately incubated with TycA or TycA-S563A (20 μg) in the presence of N-acetylcysteamine (NAC; 1 mM), ATP (1 mM), and Mg^2+ (3 mM) to establish steady-state conditions with respect to protein concentration and time at 31° C. Under steady-state conditions, either (S)-phenylalanine, (R)-β-phenylalanine, or (2R,3S)-phenylisoserine at 5, 10, 20, 40, 80, 160, 250, 500, 1000 and 2000 μM was separately incubated with TycA or TycA-S563A (20 μg), ATP (1 mM), Mg^2+ (3 mM), and N-acetylcysteamine (1 mM, ‘NAC’) in duplicate, single stopped-time ([…]) 100 μL assays. The reactions were quenched by acidification to a pH of about 2 (10% formic acid in distilled water). […] The samples were analyzed on a Quattro-Premier Electro-Spray Mass Spectrometer coupled with Acquity® UPLC system fitted with a C18 Ascentis Express column (2.5×50 mm, 2.7 μm) at 30° C. […] In brief, the effluent from the chromatography column was directed to the Quattro Premier ESI mass spectrometer, in MRM scan mode, to quantify the biosynthetic acyl SNAC products. […] A standard curve was used to convert the peak area under the curve of the monitored fragment ion to concentration for each biosynthetic phenylpropionyl SNAC.
(§1) Authentic (5)-α-phenylalanyl, (R/S)-β-phenylalanyl- and (2R,3S)-phenylisoserinyl-SNAC were used to construct the standard curves by correlating the peak area under the curve of the monitored ion to concentration of the standard (at 0.16, 0.32, 0.64, 1.3, 2.5, 5, 10, 20, 40, 80, 160 and 320 μM) using linear regression analysis.
The KM values of TycA and TycA-S563A for N-acetylcysteamine (NAC) was assessed by incubating each enzyme separately with (S)-α-phenylalanine (1 mM), MgCl2 (3 mM), ATP (1 mM), and N-acetylcysteamine at 5, 10, 20, 40, 80, 160, 250, 500, 1000 and 2000 μM at 31° C. for 20 min. […]

TycA-S563A = TycA-S563A (Brevibacillus parabrevis, UniProt P09095, S563A); settings: for kcat^NAC: TycA-S563A with NAC at apparent saturation
Procedure: Substrates (S)-α-phenylalanine, (R)-β-phenylalanine, and (2R,3S)-phenylisoserine (each at 1 mM) were separately incubated with TycA or TycA-S563A (20 μg) in the presence of N-acetylcysteamine (NAC; 1 mM), ATP (1 mM), and Mg^2+ (3 mM) to establish steady-state conditions with respect to protein concentration and time at 31° C. Under steady-state conditions, either (S)-phenylalanine, (R)-β-phenylalanine, or (2R,3S)-phenylisoserine at 5, 10, 20, 40, 80, 160, 250, 500, 1000 and 2000 μM was separately incubated with TycA or TycA-S563A (20 μg), ATP (1 mM), Mg^2+ (3 mM), and N-acetylcysteamine (1 mM, ‘NAC’) in duplicate, single stopped-time ([…]) 100 μL assays. The reactions were quenched by acidification to a pH of about 2 (10% formic acid in distilled water). (N-Boc)-α-phenylalanyl-SNAC (1 μM) was added as an internal standard when (S)-α-phenylalanine or (2,3)-phenylisoserine was used as the substrate; alternatively, (N-Boc)-β-phenylalanyl-SNAC (1 μM) was added as an internal standard when (R)-β-phenylalanine was used as the substrate (the synthesis is described below). The samples were analyzed on a Quattro-Premier Electro-Spray Mass Spectrometer coupled with Acquity® UPLC system fitted with a C18 Ascentis Express column (2.5×50 mm, 2.7 μm) at 30° C. An aliquot (5 μL) of each sample was loaded onto the column and the analytes were eluted with a solvent gradient of […] 0.05% triethylamine in distilled water (Solvent B) (held at 2.5% Solvent A for […], increased to 100% A over 5 sec with a 2-min hold, and then returned to 2.5% Solvent A over 5 sec with a 50-sec hold) at a flow rate of 0.4 mL/min. In brief, the effluent from the chromatography column was directed to the Quattro Premier ESI mass spectrometer, in MRM scan mode, to quantify the biosynthetic acyl SNAC products. The transition ions derived from the corresponding molecular ions were m/z 120.06, 131.10 and 105.95 for (S)-α-phenylalanyl-SNAC, (R)-β-phenylalanyl-SNAC and (2R,3S)-phenylisoserinyl-SNAC, respectively. A standard curve was used to convert the peak area under the curve of the monitored fragment ion to concentration for each biosynthetic phenylpropionyl SNAC.
as §1
The KM values of TycA and TycA-S563A for N-acetylcysteamine (NAC) was assessed by incubating each enzyme separately with (S)-α-phenylalanine (1 mM), MgCl2 (3 mM), ATP (1 mM), and N-acetylcysteamine at 5, 10, 20, 40, 80, 160, 250, 500, 1000 and 2000 μM at 31° C. for 20 min. The reactions were quenched by acidification to a pH of about 2 (10% formic acid in distilled water), and an internal standard, (N-Boc)-α-phenylalanyl-SNAC (1 μM), was added to each sample to correct for variations of the analyte. The [S-(acyl)-N-(acetyl)]cysteamine (SNAC) thioester products of the enzyme-catalyzed reaction were quantified by a liquid chromatography multiple reaction monitoring (MRM) mass spectrometry technique, and the monitored fragment ion (m/z 120) derived from the SNAC moiety of thioester analyte in the effluent was quantified identically to the procedure described earlier.

[1] = NAC with (S)-α-Phe as cosubstrate

| Compound | kcat^NAC (TycA) | Km (TycA; TycA with NAC) | kcat^NAC (TycA-S563A; [1]) | Km (TycA-S563A; TycA-S563A with NAC, NAC with (S)-α-Phe as cosubstrate) | decrease in turnover, TycA-S563A compared to TycA (TycA-S563A; NAC cosubstrate) | increase in KM, TycA-S563A compared to TycA (TycA-S563A; NAC cosubstrate) | lower catalytic efficiency of TycA-S563A compared to that of TycA (TycA-S563A; NAC cosubstrate) |
| --- | --- | --- | --- | --- | --- | --- | --- |
| N[C@@H](c1ccccc1)[C@@H](O)C(=O)O [(2R,3S)-PheIso, (2R,3S)-phenylisoserine] | 0.19 ± 0.01 min⁻¹ | 132 ± 56 µM | 0.31 ± 0.05 min⁻¹ | 512 ± 43 µM | – | – | – |
| N[C@H](CC(=O)O)c1ccccc1 [(R)-β-Phe, (R)-β-phenylalanine] | 0.36 ± 0.06 min⁻¹ | – | 0.024 ± 0.001 min⁻¹ | – | 15 fold | ~2 fold | ~30 fold |
